Laboratory results: patent US20240239775A1, “FXR REGULATOR, PREPARATION METHOD THEREFOR, PHARMACEUTICAL COMPOSITION THEREOF AND USE THEREOF” (QINGDAO RUIJI MEDICAL TECHNOLOGY CO., LTD., priority 2021, published 2024)
pIC50: −log10 of the molar value.

Experiments:
FXR = molecular target: T1, FXR (Homo sapiens, UniProt Q96RI1); experiment: FXR antagonist screening by TR-FRET (LanthaScreen TR-FRET FXR co-activation assay kit); format: biochemical; conditions: Table 1.1, FXR antagonistic activity; TR-FRET with CDCA; geometric means of at least two independent runs
T1 construct: 5 μL of 20 nM FXR-LBD Complete Coregulator buffer G; purchased ThermoFisher PV4833
T1 sequence (Q96RI1 262-486 limits assumed): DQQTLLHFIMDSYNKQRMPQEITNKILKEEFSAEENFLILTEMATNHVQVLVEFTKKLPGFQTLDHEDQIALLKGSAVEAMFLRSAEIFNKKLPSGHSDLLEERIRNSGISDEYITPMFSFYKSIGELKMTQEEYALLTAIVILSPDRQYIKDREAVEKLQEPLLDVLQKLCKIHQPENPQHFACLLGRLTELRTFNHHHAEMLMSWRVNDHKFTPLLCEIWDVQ
Outline: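 FXR-LBD (20 nM working solution) mixed with compound, CDCA (200 μM working solution) as agonist, Fluorescein-SRC2-2 and Tb-anti-GST antibody in Coregulator buffer G; 10 h at room temperature. Coactivator recruitment read by TR-FRET, triplicate wells.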

| SMILES | melting point | pIC50 (FXR) |
| --- | --- | --- |
| Cc1c(C(=O)O)oc2ccc(S(=O)(=O)N(CCc3ccccc3)Cc3cccc([N+](=O)[O-])c3)cc12 [Example F27-S25, 3-methyl-5-(N-(3-nitrobenzyl)-N-phenethylsulfamoyl)benzofuran-2-carboxylic acid] | > 380 °C (dec.) | 4.30 to 5.00 |
| Cc1c(C(=O)O)oc2ccc(S(=O)(=O)N(CCc3ccccc3)Cc3cccc(-c4ccccc4)c3)cc12 [Example F27-S26, 3-methyl-5-(N-([1,1′-biphenyl]-3-ylmethyl)-N-phenethylsulfamoyl)benzofuran-2-carboxylic acid] | > 380 °C (dec.) | 4.30 to 5.00 |
| Cc1c(C(=O)O)oc2ccc(S(=O)(=O)N(CCc3ccccc3)Cc3cccc(Oc4ccccc4)c3)cc12 [Example F27-S27, 3-methyl-5-(N-(3-phenoxybenzyl)-N-phenethylsulfamoyl)benzofuran-2-carboxylic acid] | > 183 °C | 4.30 to 5.00 |
| Cc1c(C(=O)O)oc2ccc(S(=O)(=O)N(CCc3ccccc3)Cc3ccc(F)cc3)cc12 [Example F27-S28, 3-methyl-5-(N-(4-fluorobenzyl)-N-phenethylsulfamoyl)benzofuran-2-carboxylic acid] | 188 to 189 °C | 4.30 to 5.00 |
| Cc1c(C(=O)O)oc2ccc(S(=O)(=O)N(CCc3ccccc3)Cc3ccc(Cl)cc3)cc12 [Example F27-S29, 3-methyl-5-(N-(4-chlorobenzyl)-N-phenethylsulfamoyl)benzofuran-2-carboxylic acid] | 172 to 173 °C | 4.30 to 5.00 |
| Cc1ccc(CN(CCc2ccccc2)S(=O)(=O)c2ccc3oc(C(=O)O)c(C)c3c2)cc1 [Example F27-S31, 3-methyl-5-(N-(4-methylbenzyl)-N-phenethylsulfamoyl)benzofuran-2-carboxylic acid] | > 380 °C (dec.) | 4.30 to 5.00 |
| Cc1c(C(=O)O)oc2ccc(S(=O)(=O)N(CCc3ccccc3)Cc3ccc(C(F)(F)F)cc3)cc12 [Example F27-S32, 3-methyl-5-(N-(4-(trifluoromethyl)benzyl)-N-phenethylsulfamoyl)benzofuran-2-carboxylic acid] | > 192 °C | 4.30 to 5.00 |
| Cc1c(C(=O)O)oc2ccc(S(=O)(=O)N(CCc3ccccc3)Cc3ccc(C(N)=O)cc3)cc12 [Example F27-S33, 3-methyl-5-(N-(4-carbamoylbenzyl)-N-phenethylsulfamoyl)benzofuran-2-carboxylic acid] | > 380 °C (dec.) | 4.00 to 4.30 |
| Cc1c(C(=O)O)oc2ccc(S(=O)(=O)N(CCc3ccccc3)Cc3ccc(OC(F)(F)F)cc3)cc12 [Example F27-S34, 3-methyl-5-(N-(4-(trifluoromethoxy)benzyl)-N-phenethylsulfamoyl)benzofuran-2-carboxylic acid] | 216 to 217 °C | 4.30 to 5.00 |
| Cc1c(C(=O)O)oc2ccc(S(=O)(=O)N(CCc3ccccc3)Cc3ccc(SC(F)(F)F)cc3)cc12 [Example F27-S35, 3-methyl-5-(N-(4-(trifluoromethylthio)benzyl)-N-phenethylsulfamoyl)benzofuran-2-carboxylic acid] | 165 to 166 °C | 4.30 to 5.00 |
| Cc1c(C(=O)O)oc2ccc(S(=O)(=O)N(CCc3ccccc3)Cc3ccc(C(C)C)cc3)cc12 [Example F27-S36, 3-methyl-5-(N-(4-isopropylbenzyl)-N-phenethylsulfamoyl)benzofuran-2-carboxylic acid] | 206 to 207 °C | 4.30 to 5.00 |
| Cc1c(C(=O)O)oc2ccc(S(=O)(=O)N(CCc3ccccc3)Cc3ccc(C(C)(C)C)cc3)cc12 [Example F27-S37, 3-methyl-5-(N-(4-tert-butylbenzyl)-N-phenethylsulfamoyl)benzofuran-2-carboxylic acid] | 206 to 207 °C | 4.30 to 5.00 |
| CC(=O)c1ccc(CN(CCc2ccccc2)S(=O)(=O)c2ccc3oc(C(=O)O)c(C)c3c2)cc1 [Example F27-S38, 3-methyl-5-(N-(4-acetylbenzyl)-N-phenethylsulfamoyl)benzofuran-2-carboxylic acid] | > 380 °C (dec.) | 4.00 to 4.30 |
| Cc1c(C(=O)O)oc2ccc(S(=O)(=O)N(CCc3ccccc3)Cc3ccc(C(=O)O)cc3)cc12 [Example F27-S39, 3-methyl-5-(N-(4-carboxybenzyl)-N-phenethylsulfamoyl)benzofuran-2-carboxylic acid] | 254 to 255 °C | 4.00 to 4.30 |
| Cc1c(C(=O)O)oc2ccc(S(=O)(=O)N(CCc3ccccc3)Cc3ccc(CC(=O)O)cc3)cc12 [Example F27-S41, 3-methyl-5-(N-(4-(carboxymethyl)benzyl)-N-phenethylsulfamoyl)benzofuran-2-carboxylic acid] | 182 to 183 °C | 4.00 to 4.30 |
| Cc1c(C(=O)O)oc2ccc(S(=O)(=O)N(CCc3ccccc3)Cc3ccc(/C=C/C(=O)O)cc3)cc12 [Example F27-S42, (E)-3-methyl-5-(N-(4-(2-carboxyvinyl)benzyl)-N-phenethylsulfamoyl)benzofuran-2-carboxylic acid] | 270 to 271 °C | 4.00 to 4.30 |
| Cc1c(C(=O)O)oc2ccc(S(=O)(=O)N(CCc3ccccc3)Cc3ccc4ccccc4c3)cc12 [Example F27-S45, 3-methyl-5-(N-(naphthalen-2-ylmethyl)-N-phenethylsulfamoyl)benzofuran-2-carboxylic acid] | > 380 °C (dec.) | 4.30 to 5.00 |
| Cc1c(C(=O)O)oc2ccc(S(=O)(=O)N(CCc3ccccc3)Cc3c(F)cccc3F)cc12 [Example F27-S46, 3-methyl-5-(N-(2,6-difluorobenzyl)-N-phenethylsulfamoyl)benzofuran-2-carboxylic acid] | 180 to 181 °C | 4.30 to 5.00 |
| Cc1c(C(=O)O)oc2ccc(S(=O)(=O)N(CCc3ccccc3)Cc3c(F)cccc3Cl)cc12 [Example F27-S47, 3-methyl-5-(N-(2-fluoro-6-chlorobenzyl)-N-phenethylsulfamoyl)benzofuran-2-carboxylic acid] | 195 to 196 °C | 5.00 to 7.00 |
| Cc1c(C(=O)O)oc2ccc(S(=O)(=O)N(CCc3ccccc3)Cc3c(F)cccc3C(F)(F)F)cc12 [Example F27-S48, 3-methyl-5-(N-(2-fluoro-6-(trifluoromethyl)benzyl)-N-phenethylsulfamoyl)benzofuran-2-carboxylic acid] | 99 to 100 °C | 4.30 to 5.00 |
| Cc1c(C(=O)O)oc2ccc(S(=O)(=O)N(CCc3ccccc3)Cc3c(Cl)cccc3Cl)cc12 [Example F27-S49, 3-methyl-5-(N-(2,6-dichlorobenzyl)-N-phenethylsulfamoyl)benzofuran-2-carboxylic acid] | 176 to 177 °C | 5.00 to 7.00 |
| Cc1cccc(C)c1CN(CCc1ccccc1)S(=O)(=O)c1ccc2oc(C(=O)O)c(C)c2c1 [Example F27-S50, 3-methyl-5-(N-(2,6-dimethylbenzyl)-N-phenethylsulfamoyl)benzofuran-2-carboxylic acid] | 211 to 212 °C | 5.00 to 7.00 |
| Cc1c(C(=O)O)oc2ccc(S(=O)(=O)N(CCc3ccccc3)Cc3ccc(F)cc3F)cc12 [Example F27-S51, 3-methyl-5-(N-(2,4-difluorobenzyl)-N-phenethylsulfamoyl)benzofuran-2-carboxylic acid] | 155 to 156 °C | 4.30 to 5.00 |
| Cc1c(C(=O)O)oc2ccc(S(=O)(=O)N(CCc3ccccc3)Cc3ccc(Cl)cc3F)cc12 [Example F27-S52, 3-methyl-5-(N-(2-fluoro-4-chlorobenzyl)-N-phenethylsulfamoyl)benzofuran-2-carboxylic acid] | > 380 °C (dec.) | 4.30 to 5.00 |
| Cc1c(C(=O)O)oc2ccc(S(=O)(=O)N(CCc3ccccc3)Cc3ccc(Br)cc3F)cc12 [Example F27-S53, 3-methyl-5-(N-(2-fluoro-4-bromobenzyl)-N-phenethylsulfamoyl)benzofuran-2-carboxylic acid] | > 380 °C (dec.) | 4.30 to 5.00 |
| Cc1c(C(=O)O)oc2ccc(S(=O)(=O)N(CCc3ccccc3)Cc3ccc(C(F)(F)F)cc3F)cc12 [Example F27-S55, 3-methyl-5-(N-(2-fluoro-4-(trifluoromethyl)benzyl)-N-phenethylsulfamoyl)benzofuran-2-carboxylic acid] | 174 to 175 °C | 4.00 to 4.30 |
| Cc1c(C(=O)O)oc2ccc(S(=O)(=O)N(CCc3ccccc3)Cc3ccc(F)cc3Cl)cc12 [Example F27-S56, 3-methyl-5-(N-(2-chloro-4-fluorobenzyl)-N-phenethylsulfamoyl)benzofuran-2-carboxylic acid] | 145 to 146 °C | 4.30 to 5.00 |
| Cc1c(C(=O)O)oc2ccc(S(=O)(=O)N(CCc3ccccc3)Cc3ccc(F)cc3C(F)(F)F)cc12 [Example F27-S57, 3-methyl-5-(N-(2-(trifluoromethyl)-4-fluorobenzyl)-N-phenethylsulfamoyl)benzofuran-2-carboxylic acid] | 156 to 157 °C | 4.30 to 5.00 |
| Cc1c(C(=O)O)oc2ccc(S(=O)(=O)N(CCc3ccccc3)Cc3ccc(C(F)(F)F)cc3C(F)(F)F)cc12 [Example F27-S58, 3-methyl-5-(N-(2,4-bis(trifluoromethyl)benzyl)-N-phenethylsulfamoyl)benzofuran-2-carboxylic acid] | 155 to 156 °C | 4.00 to 4.30 |
